The target in this assay is T1, angiotension converting enzyme (Cavia porcellus, UniProt H0UWL7).
T1 construct: from tissue; host or cells: guinea pig ileum
T1 sequence (H0UWL7 33-1302): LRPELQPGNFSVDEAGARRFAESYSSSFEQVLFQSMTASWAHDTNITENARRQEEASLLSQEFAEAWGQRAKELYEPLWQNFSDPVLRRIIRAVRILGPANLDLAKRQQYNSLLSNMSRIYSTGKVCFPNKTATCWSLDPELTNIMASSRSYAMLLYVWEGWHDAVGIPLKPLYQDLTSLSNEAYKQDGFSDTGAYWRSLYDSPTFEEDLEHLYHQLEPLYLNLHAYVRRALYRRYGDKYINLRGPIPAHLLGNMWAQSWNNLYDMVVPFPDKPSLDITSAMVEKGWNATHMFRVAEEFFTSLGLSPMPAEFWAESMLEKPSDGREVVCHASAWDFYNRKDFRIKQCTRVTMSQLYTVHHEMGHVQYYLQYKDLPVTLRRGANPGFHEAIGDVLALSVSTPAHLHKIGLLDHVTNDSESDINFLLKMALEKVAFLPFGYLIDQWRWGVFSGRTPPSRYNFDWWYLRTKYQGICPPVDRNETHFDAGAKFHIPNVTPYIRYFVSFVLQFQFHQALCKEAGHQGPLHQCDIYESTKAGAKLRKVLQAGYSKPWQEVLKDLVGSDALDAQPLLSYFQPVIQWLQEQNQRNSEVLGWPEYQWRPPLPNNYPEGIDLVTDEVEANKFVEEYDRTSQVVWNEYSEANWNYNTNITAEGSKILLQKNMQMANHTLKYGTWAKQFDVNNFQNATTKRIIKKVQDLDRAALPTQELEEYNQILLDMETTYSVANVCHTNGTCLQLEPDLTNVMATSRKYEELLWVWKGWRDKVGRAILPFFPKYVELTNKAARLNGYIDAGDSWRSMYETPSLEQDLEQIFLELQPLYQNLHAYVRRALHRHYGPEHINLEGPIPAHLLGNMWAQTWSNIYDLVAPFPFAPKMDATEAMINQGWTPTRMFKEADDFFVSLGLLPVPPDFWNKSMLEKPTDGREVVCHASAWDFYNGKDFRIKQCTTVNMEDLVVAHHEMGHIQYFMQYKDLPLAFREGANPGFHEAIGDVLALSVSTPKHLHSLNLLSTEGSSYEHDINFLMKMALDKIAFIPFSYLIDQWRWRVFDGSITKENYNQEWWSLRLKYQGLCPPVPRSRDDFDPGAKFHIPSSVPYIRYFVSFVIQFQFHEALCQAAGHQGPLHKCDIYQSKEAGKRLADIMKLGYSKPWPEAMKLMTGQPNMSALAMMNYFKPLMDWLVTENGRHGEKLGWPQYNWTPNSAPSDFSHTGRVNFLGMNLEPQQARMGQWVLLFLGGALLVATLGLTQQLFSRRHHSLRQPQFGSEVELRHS
Briefly: angiotensin converting enzyme inhibition in guinea pig ileum (inhibition of contractile responses to Angiotensin I). In kind it is cell-based. The settings on record: dose-dependent inhibition of contractile responses to Angiotensin I, in vitro, read-out: EC50 (the source's name). An excerpt: (b) ACE inhibition in vitro
In any assay for angiotension converting enzyme inhibition in guinea pig ileum, dose-dependent inhibition of contractile responses to Angiotensin I gave the following results: […]

SMILES strings stand for the structures. Counter-ions that a name gives are not always drawn.

Consider `CC(C)NCC(O)COc1cccc2ccc(CNCCCC[C@H](NC(C)C(=O)N3CCC[C@H]3C(=O)O)C(=O)O)cc12` (stereo partly drawn) [Example 5, N-(1(S)-Carboxy-5-[8-(2(S,R)-hydroxy-3-isopropylaminopropoxy)naphth-2-ylmethylamino]pentyl)-(S,R)-alanyl-(S)-proline tristrifluoroacetate], for which the IC50 was 9.6 nM.

As to `CC(C)NCC(O)COc1cccc2c(OCC(=O)NCCCC[C@H](NC(C)C(=O)N3CCC[C@H]3C(=O)O)C(=O)O)cccc12` (stereo partly drawn) [Example 2, N-(l(S)-Carboxy-5-(2-[5-(2(S,R)-hydroxy-3-isopropylaminopropoxy)-naphth-1-yloxy]acetamido)pentyl)-(S,R)-alanyl-(S)-proline dihydrochloride acetate hemihydrate], the IC50 worked out at 13.5 nM.

(Values after patent EP0237239A2, “New compounds” (THE WELLCOME FOUNDATION LIMITED, priority 1986, dated 1987).)
